Measurements published in patent publication US10001483B2, “Methods for the treatment of Kaposi's sarcoma or KSHV-induced lymphoma using immunomodulatory compounds, and uses of biomarkers” (Celgene Corporation, priority 2015, dated 2018).
Entries after “also recorded” stand apart in the source; their conditions may differ. Marks after values point to notes of the source that are not given here.

How the values were obtained:
MHC-1 = assay: Butyrate induced (lytic KSHV activation) MHC-1 down-regulation in BCBL-1 cells, FACS and Western blot; format: cell-based; conditions: pretreatment 24 h before butyrate
Experimental: (§1) In addition, the effect of the immunomodulatory drugs on KSHV down-regulation of MHC-1 during lytic activation was investigated by FACS analysis after pretreating the cells with Immunomodulatory drugs prior to lytic activation with butyrate.
Flow Cytometry Analysis and Antibodies: For flow cytometry analysis of MHC-I expression, cells were plated at 400,000 cells/mL and pretreated with immunomodulatory agents as indicated. After twenty-four hours, cells were treated with butyrate at indicated amounts to induce lytic activation and down-regulation of MHC-I. After another twenty-four hours, cells were analyzed on FACS and extracts were prepared as indicated. For flow cytometry analysis, the cells, 1×105 per sample, were incubated with indicated conjugated monoclonal antibodies for 30 min at 4° C. After washing twice with PBS, cells were resuspended in PBS and flow cytometry analysis was performed with a FACSCalibur. FITC-conjugated antibodies to anti-HLA MHC Class I (Sigma-Aldrich) and PE-conjugated antibodies to anti-DR MHC Class II (BioLegend) were used for flow cytometry.

[1] = patients; approved dose 4 mg; cited from earlier work
IRF4 = assay: Western blot of IRF4 in PEL cell lines; format: cell-based; conditions: BC-3, BCBL-1, JSC-1
Text: as §1
Cell Culture: The PEL lines JSC-1 (John Hopkins University, Baltimore, Md.), dually infected with Epstein-Barr virus (EBV) and HHV-8, and BC-3 (ATCC, Rockville, Md.) and BCBL-1(National Institute of Health AIDS Research and Reagent Program, Rockville, Md.), harboring KSHV only, and CA-46, an uninfected cancerous B-cell line, were grown in RPMI 1640 medium (Invitrogen, Carlsbad, Calif.) supplemented with 15% fetal-bovine serum (FBS) (Thermo Scientific, Rockford, Ill.) and Pen/Strep glutamine at 37° C. with 5% CO2.
Western Blotting: At the end of an incubation period, cells were lysed and nuclear/cytoplasmic extracts were prepared using the NE-PER nuclear extraction kit (Pierce). Samples were subjected to SDS-PAGE (4 to 12% NuPAGE Tris-Bis) (Invitrogen) and transferred to nitrocellulose. The membrane was blocked with 5% w/v nonfat dry milk in 1×TBST (10 mM Tris-Hcl, […], 150 mM NaCl, and 0.05% Tween 20) overnight at 4° C. […]

[2] = tested on: Kaposi sarcoma associated herpesvirus (KSHV/HHV8); assay: KSHV viral load in PBMC by quantitative real-time PCR; format: in vivo
Experimental: Aspirin at 81 mg daily was administered as thromboprophylaxis. Assessments were performed every 4 weeks for lymphocyte numbers, Kaposi sarcoma associated herpesvirus (KSHV/HHV8) viral load (VL) and HIV VL and at 8 weeks for T cell subsets and activation by immunophenotyping of peripheral blood mononuclear cells (PBMC). KSHV VL in PBMC and HIV VL in plasma were assayed by quantitative PCR; an ultrasensitive single copy assay was used for HIV VL. Changes from baseline were evaluated using the Wilcoxon signed rank test with P<0.005 considered significant given multiple comparisons. Differences in changes between the HIV infected and uninfected groups were evaluated using the Wilcoxon rank sum test. Median time of the patients on therapy 7 cycles (range 2-12).
Laboratory Assays: Lymphocyte subsets were assessed by fluorescent-activated cell sorting using the BlueOcean platform (Beckman Coulter, Carlsbad, Calif.). Plasma HIV-1 […] was evaluated using an ultrasensitive assay whose sensitivity was 1 viral copy per plasma volume. Briefly, a triplex PCR was used using a modification of a previously reported assay with three primers: one spanning the start codon of gag, one in the gag coding region, and one internal control. Samples were tested from 6 mL plasma aliquots, with 12 replicants per sample. KSHV VL in peripheral blood mononuclear cells (PBMC) was assessed by quantitative real-time PCR.
Changes in immunologic and virologic parameters were evaluated by a Wilcoxon signed rank test. Exact Wilcoxon rank sum tests were used to compare pharmacokinetic parameters at each time point and differences from baseline. All p-values are two-tailed and reported without adjustment for multiple comparisons. HRQL was analyzed using a using a mixed model repeated measures analysis for FAHI and the marginal homogeneity test for KS-specific questions

Structure (SMILES): Nc1cccc2c1C(=O)N(C1CCC(=O)NC1=O)C2=O (centres unmarked) [pomalidomide, 4-amino-2-(2,6-dioxopiperidin-3-yl)isoindoline-1,3-dione]
- down-regulation of MHC Class I expression upon lytic KSHV activation (MHC-1; FIGS. 7A-7C and FIG. 8): inhibits MHC-1 down-regulation
- down-regulation of MHC Class I expression upon lytic KSHV activation (MHC-1; FIGS. 7A-7C and FIG. 8, listed as Pomalidomide): substantially more effective at preventing the down-regulation
- Plasma Serum Concentration [1]: 300 nM
- IRF4 expression level (IRF4; 1 μM and 10 μM, FIGS. 4A-4D): downregulated IRF4 in all three PEL lines
- IRF4 expression level (IRF4; indicated concentrations for 72 hours, among three tested compounds, FIGS. 3A-3C): most effective in downregulating IRF4
- KSHV VL (copies/PBMC) Change to End Therapy (Med, range) ([2]; median change from baseline): 0 copies/PBMC
- KSHV VL (copies/PBMC) Change to Week 8 (Med, range) ([2]; median change from baseline): 0 copies/PBMC
- KSHV VL (copies/PBMC) Change to Week 4 (Med, range) ([2]; median change from baseline 0): 0^† copies/PBMC
- subjects whose KSHV VL became detectable from undetectable ([2]; week 4, 8 subjects): 35%
- subjects showing an increase in KSHV VL in PBMCs ([2]; week 4, 10 subjects): 45%
- KSHV VL ([2]; week 4, not sustained at week 8): transient increase; also recorded: significant increase
